In ChEMBL document CHEMBL3611969, “The effect of complexation of 3-formylrifamycin SV macrocyclic ether derivatives with metal cations and small nitrogen-containing organic molecules on antibacterial activity against S. aureus and S. epidermidis” (Bioorg Med Chem Lett, 2015):
≈ marks a conversion by molar mass, not a printed value.

Assays:
Staphylococcus aureus [1] = experiment: Antibacterial activity against Staphylococcus aureus ATCC 6538 after 18 hrs by serial microdilution method; assay type: functional; settings: ATCC 6538, 18 h
Staphylococcus aureus [2] = experiment: Antibacterial activity against Staphylococcus aureus ATCC 6538 after 18 hrs by serial microdilution method in presence of Li+; assay type: functional; settings: ATCC 6538, 18 h
Staphylococcus aureus [3] = experiment: Antibacterial activity against Staphylococcus aureus ATCC 6538 after 18 hrs by serial microdilution method in presence of Na+; assay type: functional; settings: ATCC 6538, 18 h
Staphylococcus aureus [4] = experiment: Antibacterial activity against Staphylococcus aureus ATCC 4163 after 18 hrs by serial microdilution method; assay type: functional; settings: ATCC 4163, 18 h
Staphylococcus aureus [5] = experiment: Antibacterial activity against Staphylococcus aureus ATCC 4163 after 18 hrs by serial microdilution method in presence of Li+; assay type: functional; settings: ATCC 4163, 18 h
Staphylococcus aureus [6] = experiment: Antibacterial activity against Staphylococcus aureus ATCC 4163 after 18 hrs by serial microdilution method in presence of Na+; assay type: functional; settings: ATCC 4163, 18 h
Staphylococcus aureus [7] = experiment: Antibacterial activity against Staphylococcus aureus ATCC 25923 after 18 hrs by serial microdilution method; assay type: functional; settings: ATCC 25923, 18 h
Staphylococcus aureus [8] = experiment: Antibacterial activity against Staphylococcus aureus ATCC 25923 after 18 hrs by serial microdilution method in presence of Li+; assay type: functional; settings: ATCC 25923, 18 h
Staphylococcus aureus [9] = experiment: Antibacterial activity against Staphylococcus aureus ATCC 25923 after 18 hrs by serial microdilution method in presence of Na+; assay type: functional; settings: ATCC 25923, 18 h
[10] = test system: Staphylococcus epidermidis; experiment: Antibacterial activity against Staphylococcus epidermidis ATCC 12228 after 18 hrs by serial microdilution method; assay type: functional; settings: ATCC 12228, 18 h
[11] = test system: Staphylococcus epidermidis; experiment: Antibacterial activity against Staphylococcus epidermidis ATCC 12228 after 18 hrs by serial microdilution method in presence of Li+; assay type: functional; settings: ATCC 12228, 18 h
[12] = test system: Staphylococcus epidermidis; experiment: Antibacterial activity against Staphylococcus epidermidis ATCC 12228 after 18 hrs by serial microdilution method in presence of Na+; assay type: functional; settings: ATCC 12228, 18 h
[13] = test system: Staphylococcus epidermidis; experiment: Antibacterial activity against Staphylococcus epidermidis ATCC 49134 after 18 hrs by serial microdilution method; assay type: functional; settings: ATCC 49134, 18 h
[14] = test system: Staphylococcus epidermidis; experiment: Antibacterial activity against Staphylococcus epidermidis ATCC 49134 after 18 hrs by serial microdilution method in presence of Li+; assay type: functional; settings: ATCC 49134, 18 h
[15] = test system: Staphylococcus epidermidis; experiment: Antibacterial activity against Staphylococcus epidermidis ATCC 49134 after 18 hrs by serial microdilution method in presence of Na+; assay type: functional; settings: ATCC 49134, 18 h
[16] = Solubility of the compound in water at pH 7; assay type: physicochemical
[17] = Octanol-water partition coefficient, log P of the compound by UV-vis method; assay type: physicochemical
[18] = Solubility of the compound in water at pH 7 in presence of Li+; assay type: physicochemical
[19] = Solubility of the compound in water at pH 7 in presence of Na+; assay type: physicochemical
[20] = Octanol-water partition coefficient, log P of the compound by UV-vis method in presence of Li+; assay type: physicochemical
[21] = Octanol-water partition coefficient, log P of the compound by UV-vis method in presence of Na+; assay type: physicochemical
Staphylococcus aureus [22] = experiment: Antibacterial activity against Staphylococcus aureus ATCC 6538 after 18 hrs by serial microdilution method in presence of isoniazid; assay type: functional; settings: ATCC 6538, 18 h
Staphylococcus aureus [23] = experiment: Antibacterial activity against Staphylococcus aureus ATCC 6538 after 18 hrs by serial microdilution method in presence of 2-chlorobenzylamine; assay type: functional; settings: ATCC 6538, 18 h
Staphylococcus aureus [24] = experiment: Antibacterial activity against Staphylococcus aureus ATCC 6538 after 18 hrs by serial microdilution method in presence of 4-fluorobenzylamine; assay type: functional; settings: ATCC 6538, 18 h
Staphylococcus aureus [25] = experiment: Antibacterial activity against Staphylococcus aureus ATCC 6538 after 18 hrs by serial microdilution method in presence of histamine; assay type: functional; settings: ATCC 6538, 18 h
Staphylococcus aureus [26] = experiment: Antibacterial activity against Staphylococcus aureus ATCC 4163 after 18 hrs by serial microdilution method in presence of 2-chlorobenzylamine; assay type: functional; settings: ATCC 4163, 18 h
Staphylococcus aureus [27] = experiment: Antibacterial activity against Staphylococcus aureus ATCC 4163 after 18 hrs by serial microdilution method in presence of 4-fluorobenzylamine; assay type: functional; settings: ATCC 4163, 18 h
Staphylococcus aureus [28] = experiment: Antibacterial activity against Staphylococcus aureus ATCC 4163 after 18 hrs by serial microdilution method in presence of isoniazid; assay type: functional; settings: ATCC 4163, 18 h
Staphylococcus aureus [29] = experiment: Antibacterial activity against Staphylococcus aureus ATCC 4163 after 18 hrs by serial microdilution method in presence of histamine; assay type: functional; settings: ATCC 4163, 18 h
Staphylococcus aureus [30] = experiment: Antibacterial activity against Staphylococcus aureus ATCC 25923 after 18 hrs by serial microdilution method in presence of 2-chlorobenzylamine; assay type: functional; settings: ATCC 25923, 18 h
Staphylococcus aureus [31] = experiment: Antibacterial activity against Staphylococcus aureus ATCC 25923 after 18 hrs by serial microdilution method in presence of 4-fluorobenzylamine; assay type: functional; settings: ATCC 25923, 18 h
Staphylococcus aureus [32] = experiment: Antibacterial activity against Staphylococcus aureus ATCC 25923 after 18 hrs by serial microdilution method in presence of isoniazid; assay type: functional; settings: ATCC 25923, 18 h
Staphylococcus aureus [33] = experiment: Antibacterial activity against Staphylococcus aureus ATCC 25923 after 18 hrs by serial microdilution method in presence of histamine; assay type: functional; settings: ATCC 25923, 18 h
[34] = test system: Staphylococcus epidermidis; experiment: Antibacterial activity against Staphylococcus epidermidis ATCC 12228 after 18 hrs by serial microdilution method in presence of 2-chlorobenzylamine; assay type: functional; settings: ATCC 12228, 18 h
[35] = test system: Staphylococcus epidermidis; experiment: Antibacterial activity against Staphylococcus epidermidis ATCC 12228 after 18 hrs by serial microdilution method in presence of 4-fluorobenzylamine; assay type: functional; settings: ATCC 12228, 18 h
[36] = test system: Staphylococcus epidermidis; experiment: Antibacterial activity against Staphylococcus epidermidis ATCC 12228 after 18 hrs by serial microdilution method in presence of isoniazid; assay type: functional; settings: ATCC 12228, 18 h
[37] = test system: Staphylococcus epidermidis; experiment: Antibacterial activity against Staphylococcus epidermidis ATCC 12228 after 18 hrs by serial microdilution method in presence of histamine; assay type: functional; settings: ATCC 12228, 18 h
[38] = test system: Staphylococcus epidermidis; experiment: Antibacterial activity against Staphylococcus epidermidis ATCC 49134 after 18 hrs by serial microdilution method in presence of 2-chlorobenzylamine; assay type: functional; settings: ATCC 49134, 18 h
[39] = test system: Staphylococcus epidermidis; experiment: Antibacterial activity against Staphylococcus epidermidis ATCC 49134 after 18 hrs by serial microdilution method in presence of 4-fluorobenzylamine; assay type: functional; settings: ATCC 49134, 18 h
[40] = test system: Staphylococcus epidermidis; experiment: Antibacterial activity against Staphylococcus epidermidis ATCC 49134 after 18 hrs by serial microdilution method in presence of isoniazid; assay type: functional; settings: ATCC 49134, 18 h
[41] = test system: Staphylococcus epidermidis; experiment: Antibacterial activity against Staphylococcus epidermidis ATCC 49134 after 18 hrs by serial microdilution method in presence of histamine; assay type: functional; settings: ATCC 49134, 18 h
[42] = Solubility of the compound in water at pH 7 in presence of histamine; assay type: physicochemical
[43] = Octanol-water partition coefficient, log P of the compound by UV-vis method in presence of histamine; assay type: physicochemical

Structure (SMILES): CO[C@H]1/C=C/O[C@@]2(C)Oc3c(C)c(O)c4c(O)c(c(CNCC5COCCOCCOCCOCCO5)c(O)c4c3C2=O)NC(=O)/C(C)=C\C=C\[C@H](C)[C@H](O)[C@@H](C)[C@@H](O)[C@@H](C)[C@H](OC(C)=O)[C@@H]1C (some centres not stated)
- MIC (Staphylococcus aureus [1]): 2 µg/mL (≈ 2.09 µM)
- MIC (Staphylococcus aureus [2]): > 4 µg/mL
- MIC (Staphylococcus aureus [3]): 2 µg/mL
- MIC (Staphylococcus aureus [4]): 4 µg/mL (≈ 4.17 µM)
- MIC (Staphylococcus aureus [5]): 4 µg/mL
- MIC (Staphylococcus aureus [6]): > 4 µg/mL
- MIC (Staphylococcus aureus [7]): > 4 µg/mL
- MIC (Staphylococcus aureus [8]): > 4 µg/mL
- MIC (Staphylococcus aureus [9]): > 4 µg/mL
- MIC [10]: 2 µg/mL (≈ 2.09 µM)
- MIC [11]: 2 µg/mL
- MIC [12]: 4 µg/mL
- MIC [13]: 2 µg/mL (≈ 2.09 µM)
- MIC [14]: 2 µg/mL
- MIC [15]: 4 µg/mL
- solubility [16]: 120 µg/mL (≈ 125 µM)
- logP [17]: 1.18

Structure (SMILES): CO[C@H]1/C=C/O[C@@]2(C)Oc3c(C)c(O)c4c(O)c(c(CNCC5COCCOCCOCCOCCOCCO5)c(O)c4c3C2=O)NC(=O)/C(C)=C\C=C\[C@H](C)[C@H](O)[C@@H](C)[C@@H](O)[C@@H](C)[C@H](OC(C)=O)[C@@H]1C (some centres not stated)
- MIC (Staphylococcus aureus [1]): 1 µg/mL (≈ 0.997 µM)
- MIC (Staphylococcus aureus [2]): 1 µg/mL
- MIC (Staphylococcus aureus [3]): 2 µg/mL
- MIC (Staphylococcus aureus [4]): 1 µg/mL (≈ 0.997 µM)
- MIC (Staphylococcus aureus [5]): 1 µg/mL
- MIC (Staphylococcus aureus [6]): 2 µg/mL
- MIC (Staphylococcus aureus [7]): 2 µg/mL (≈ 1.99 µM)
- MIC (Staphylococcus aureus [8]): 2 µg/mL
- MIC (Staphylococcus aureus [9]): 2 µg/mL
- MIC [10]: 1 µg/mL (≈ 0.997 µM)
- MIC [11]: 1 µg/mL
- MIC [12]: 1 µg/mL
- MIC [13]: 1 µg/mL (≈ 0.997 µM)
- MIC [14]: 1 µg/mL
- MIC [15]: 1 µg/mL
- solubility [16]: 1000 µg/mL (≈ 997 µM)
- logP [17]: 1.76
- solubility [18]: 670 µg/mL
- solubility [19]: 600 µg/mL
- logP [20]: 1.09
- logP [21]: 1.13

Structure (SMILES): CO[C@H]1/C=C/O[C@@]2(C)Oc3c(C)c(O)c4c(O)c(c(CNc5ccc6c(c5)OCCOCCOCCOCCOCCO6)c(O)c4c3C2=O)NC(=O)/C(C)=C\C=C\[C@H](C)[C@H](O)[C@@H](C)[C@@H](O)[C@@H](C)[C@H](OC(C)=O)[C@@H]1C
- MIC (Staphylococcus aureus [1]): 2 µg/mL (≈ 1.93 µM)
- MIC (Staphylococcus aureus [22]): 1 µg/mL
- MIC (Staphylococcus aureus [23]): 0.25 µg/mL
- MIC (Staphylococcus aureus [24]): 0.25 µg/mL
- MIC (Staphylococcus aureus [25]): 0.125 µg/mL
- MIC (Staphylococcus aureus [4]): 2 µg/mL (≈ 1.93 µM)
- MIC (Staphylococcus aureus [26]): 0.25 µg/mL
- MIC (Staphylococcus aureus [27]): 0.25 µg/mL
- MIC (Staphylococcus aureus [28]): 1 µg/mL
- MIC (Staphylococcus aureus [29]): 0.125 µg/mL
- MIC (Staphylococcus aureus [7]): 2 µg/mL (≈ 1.93 µM)
- MIC (Staphylococcus aureus [30]): 0.25 µg/mL
- MIC (Staphylococcus aureus [31]): 0.25 µg/mL
- MIC (Staphylococcus aureus [32]): 1 µg/mL
- MIC (Staphylococcus aureus [33]): 0.125 µg/mL
- MIC [10]: 0.5 µg/mL (≈ 0.482 µM)
- MIC [34]: 0.25 µg/mL
- MIC [35]: 0.25 µg/mL
- MIC [36]: 0.5 µg/mL
- MIC [37]: 1.25 µg/mL
- MIC [13]: 0.5 µg/mL (≈ 0.482 µM)
- MIC [38]: 0.25 µg/mL
- MIC [39]: 0.25 µg/mL
- MIC [40]: 0.5 µg/mL
- MIC [41]: 0.125 µg/mL
- solubility [16]: 110 µg/mL (≈ 106 µM)
- logP [17]: 0.53
- solubility [42]: 410 µg/mL
- logP [43]: 0.69
